Data reported in patent publication US20220090124A1, “HUMANIZED VIPR2 COPY NUMBER VARIANT TRANSGENIC MOUSE MODEL FOR ANTIPSYCHOTIC DRUG AND GENE THERAPY DISCOVERY FOR SCHIZOPHRENIA” (Board of Supervisors of Louisiana State University and …, priority 2019, published 2022).

Columns and labels:
human VIPR2 receptor = biological target: T1, human VIPR2 receptor (Homo sapiens, UniProt P41587); assay: receptor block and downstream signaling in cell line expressing the human VIPR2 receptor; type: cell-based; settings: cell line expressing the human VIPR2 receptor (cell line of VIPR2 CNV)
T1 construct: expressed in transfected cells; host or cells: cell line of VPIR2 CNV (not further described)
T1 sequence (P41587 24-438): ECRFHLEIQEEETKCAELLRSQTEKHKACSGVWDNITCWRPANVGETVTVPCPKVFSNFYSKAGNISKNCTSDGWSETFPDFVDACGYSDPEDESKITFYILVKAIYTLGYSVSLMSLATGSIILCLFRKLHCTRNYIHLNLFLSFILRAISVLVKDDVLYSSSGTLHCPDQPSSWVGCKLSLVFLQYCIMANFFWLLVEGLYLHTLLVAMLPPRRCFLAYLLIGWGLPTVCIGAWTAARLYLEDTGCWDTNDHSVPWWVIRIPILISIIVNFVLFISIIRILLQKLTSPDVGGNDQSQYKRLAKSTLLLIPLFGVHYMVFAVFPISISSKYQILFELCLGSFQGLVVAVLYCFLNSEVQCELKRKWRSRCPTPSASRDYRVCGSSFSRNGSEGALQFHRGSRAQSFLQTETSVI
Description: Turning finally to FIG. 57, a small molecule VIPR2 antagonist, (2R,4S)-2-benzyl-4-hydroxy-N-((1S,2R)-2-hydroxy-2,3-dihydro-1H-inden-1-yl)-5-(4-nitrophenylsulfonamido) pentanamide, is shown. Another object of the present invention is to use the VIRP2 BAC Schizophrenia mouse model to identify VIPR2 receptor antagonist as an antipsychotic drug targeting cognitive and social deficits, or as disease-modifying therapy to prevent or slow/stop disease progression. Currently, the majority of VIPR2 agonist or antagonist are peptides. However, two properties of the peptide hormone are problematic from the perspective of therapeutic applications. First, they have a short half-life as a result of its rapid proteolysis. Second, most of these peptides are not specific and activate three broadly distributed receptors, VIPR1, VIPR2, and PAC1. A high-throughput screen on human VPAC2 receptor using a cell-based cAMP assay has identified a single confirmed antagonist hit from a 1.67 million-compound collection. This compound is the first specific small molecule antagonist for human VIPR2 receptor. The full name of the compound is (2R,4S)-2-benzyl-4-hydroxy-N-((1S,2R)-2-hydroxy-2,3-dihydro-1H-inden-1-yl)-5-(4-nitrophenylsulfonamido) pentanamide (FIG. 57). […] The inventors experimented with this hVIPR2 antagonist in the cell line of VPIR2 CNV. […]

mouse Vipr2 receptor = biological target: T2, mouse Vipr2 receptor (Mus musculus, UniProt P41588); settings: species specificity; cited from earlier work
T2 sequence (P41588 23-437): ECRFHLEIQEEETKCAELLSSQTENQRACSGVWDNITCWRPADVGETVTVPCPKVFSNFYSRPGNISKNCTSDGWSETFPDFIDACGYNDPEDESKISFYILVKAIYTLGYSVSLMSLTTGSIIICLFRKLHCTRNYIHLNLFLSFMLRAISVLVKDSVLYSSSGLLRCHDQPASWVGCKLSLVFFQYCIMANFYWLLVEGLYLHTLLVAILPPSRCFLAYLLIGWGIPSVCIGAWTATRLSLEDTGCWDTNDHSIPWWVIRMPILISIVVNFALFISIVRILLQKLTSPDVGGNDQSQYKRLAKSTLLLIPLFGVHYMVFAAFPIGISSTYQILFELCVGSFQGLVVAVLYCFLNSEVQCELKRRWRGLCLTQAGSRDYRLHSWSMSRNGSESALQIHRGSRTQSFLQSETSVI

hVPAC1 = biological target: T3, hVPAC1 (Homo sapiens, UniProt P32241); settings: selectivity; cited from earlier work
T3 sequence (P32241 31-457): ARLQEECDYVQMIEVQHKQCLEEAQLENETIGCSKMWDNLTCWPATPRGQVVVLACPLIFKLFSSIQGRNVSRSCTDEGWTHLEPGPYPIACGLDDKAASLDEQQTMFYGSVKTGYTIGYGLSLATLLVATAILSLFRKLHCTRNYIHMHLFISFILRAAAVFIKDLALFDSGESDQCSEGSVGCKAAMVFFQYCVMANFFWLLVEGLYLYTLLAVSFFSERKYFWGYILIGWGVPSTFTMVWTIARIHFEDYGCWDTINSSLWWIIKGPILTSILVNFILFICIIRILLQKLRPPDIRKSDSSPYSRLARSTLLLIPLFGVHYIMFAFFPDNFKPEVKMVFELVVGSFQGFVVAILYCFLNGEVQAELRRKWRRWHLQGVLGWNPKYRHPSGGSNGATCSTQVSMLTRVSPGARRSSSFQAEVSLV

hPAC1 = biological target: T4, hPAC1 (Homo sapiens, UniProt P41586); settings: selectivity; cited from earlier work
T4 sequence (P41586 21-468): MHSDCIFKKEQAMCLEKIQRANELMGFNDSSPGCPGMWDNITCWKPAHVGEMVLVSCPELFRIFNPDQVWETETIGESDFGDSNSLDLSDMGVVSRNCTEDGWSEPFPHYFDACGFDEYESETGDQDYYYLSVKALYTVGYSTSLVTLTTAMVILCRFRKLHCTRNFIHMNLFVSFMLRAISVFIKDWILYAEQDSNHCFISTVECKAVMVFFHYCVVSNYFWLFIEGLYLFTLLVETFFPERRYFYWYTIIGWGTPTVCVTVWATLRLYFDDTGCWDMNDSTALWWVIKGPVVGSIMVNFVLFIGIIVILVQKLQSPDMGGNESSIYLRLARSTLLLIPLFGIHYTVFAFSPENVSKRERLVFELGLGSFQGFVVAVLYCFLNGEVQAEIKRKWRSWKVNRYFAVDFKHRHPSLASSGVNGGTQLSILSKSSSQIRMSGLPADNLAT

human VPAC2 receptor = biological target: T5, human VPAC2 receptor (Homo sapiens, UniProt P41587); settings: high-throughput screen of 1.67 million-compound collection, cell-based cAMP assay; cited from earlier work
T5 sequence (P41587 24-438): T1 sequence (P41587 24-438)

O=C(N[C@H]1c2ccccc2C[C@H]1O)[C@H](Cc1ccccc1)C[C@H](O)CNS(=O)(=O)c1ccc([N+](=O)[O-])cc1 [(2R,4S)-2-benzyl-4-hydroxy-N-((1S,2R)-2-hydroxy-2,3-dihydro-1H-inden-1-yl)-5-(4-nitrophenylsulfonamido) pentanamide]
block of VIPR2 receptor and downstream signaling (human VIPR2 receptor): blocks the VIPR2 receptor and the downstream signaling
activity on the mouse Vipr2 receptor (mouse Vipr2 receptor): completely lacks activity
antagonism of hVPAC1 (hVPAC1): does not antagonize
antagonism of hPAC1 (hPAC1): does not antagonize
antagonist activity on human VIPR2 receptor (human VPAC2 receptor): selective human VIPR2 antagonist
